Laboratory results from the NIST ThermoML archive (doi:10.1016/j.tca.2018.11.018).

Assay: xn = mol fraction of the nth substance listed
Settings: 100 kPa, Liquid; for viscosity: Falling or rolling sphere viscometry; for mass density: Vibrating tube method

CC[N+]1(C)CCCCC1.[Br-] [N-ethyl-N-methylpiperidinium bromide] + O
Settings | mass density [kg/m3] | viscosity [mPa·s]
298.15 K, x1 = 0.02 | 1042.3 | 1.263
298.15 K, x1 = 0.046 | 1088.3 | 2.026
298.15 K, x1 = 0.065 | 1116.9 | 2.813
298.15 K, x1 = 0.085 | 1141.4 | 3.992
298.15 K, x1 = 0.11 | 1167.4 | 6.16
298.15 K, x1 = 0.14 | 1192.2 | 11.35
298.15 K, x1 = 0.18 | 1217.8 | 20.55
298.15 K, x1 = 0.221 | 1237.8 | 36.06
298.15 K, x1 = 0.27 | 1255.2 | 68.76
298.15 K, x1 = 0.321 | 1268.9 | 135.3
303.15 K, x1 = 0.02 | 1040.5 | 1.124
303.15 K, x1 = 0.046 | 1085.9 | 1.783
303.15 K, x1 = 0.065 | 1114.2 | 2.444
303.15 K, x1 = 0.085 | 1138.5 | 3.419
303.15 K, x1 = 0.11 | 1164.3 | 5.175
303.15 K, x1 = 0.14 | 1189 | 9.449
303.15 K, x1 = 0.18 | 1214.4 | 16.67
303.15 K, x1 = 0.221 | 1234.4 | 28.38
303.15 K, x1 = 0.27 | 1251.8 | 51.92
303.15 K, x1 = 0.321 | 1265.5 | 98.65
308.15 K, x1 = 0.02 | 1038.6 | 1.011
308.15 K, x1 = 0.046 | 1083.5 | 1.59
308.15 K, x1 = 0.065 | 1111.5 | 2.147
308.15 K, x1 = 0.085 | 1135.5 | 2.967
308.15 K, x1 = 0.11 | 1161.2 | 4.41
308.15 K, x1 = 0.14 | 1185.7 | 7.861
308.15 K, x1 = 0.18 | 1211 | 13.6
308.15 K, x1 = 0.221 | 1230.9 | 22.48
308.15 K, x1 = 0.27 | 1248.4 | 39.91
308.15 K, x1 = 0.321 | 1262.1 | 73.14
313.15 K, x1 = 0.02 | 1036.4 | 0.915
313.15 K, x1 = 0.046 | 1081.1 | 1.421
313.15 K, x1 = 0.065 | 1108.7 | 1.901
313.15 K, x1 = 0.085 | 1132.5 | 2.595
313.15 K, x1 = 0.11 | 1158 | 3.8
313.15 K, x1 = 0.14 | 1182.3 | 6.584
313.15 K, x1 = 0.18 | 1207.5 | 11.17
313.15 K, x1 = 0.221 | 1227.4 | 18.06
313.15 K, x1 = 0.27 | 1244.9 | 31
313.15 K, x1 = 0.321 | 1258.6 | 54.37
318.15 K, x1 = 0.02 | 1034.1 | 0.834
318.15 K, x1 = 0.046 | 1078.7 | 1.279
318.15 K, x1 = 0.065 | 1105.9 | 1.697
318.15 K, x1 = 0.085 | 1129.5 | 2.287
318.15 K, x1 = 0.11 | 1154.8 | 3.301
318.15 K, x1 = 0.14 | 1178.9 | 5.574
318.15 K, x1 = 0.18 | 1204.1 | 9.251
318.15 K, x1 = 0.221 | 1223.9 | 14.7
318.15 K, x1 = 0.27 | 1241.4 | 24.63
318.15 K, x1 = 0.321 | 1255.2 | 42.07
323.15 K, x1 = 0.02 | – | 0.767
323.15 K, x1 = 0.046 | – | 1.162
323.15 K, x1 = 0.065 | – | 1.522
323.15 K, x1 = 0.085 | – | 2.045
323.15 K, x1 = 0.11 | – | 2.895
323.15 K, x1 = 0.14 | – | 4.742
323.15 K, x1 = 0.18 | – | 7.76
323.15 K, x1 = 0.221 | – | 12.15
323.15 K, x1 = 0.27 | – | 19.99
323.15 K, x1 = 0.321 | – | 33.03
